Where “and” joins values, the source holds several entries; their conditions need not be identical. Equal entries are not always repeated.
Tests used:
Assay in all cases: Kinase selectivity profile assay
Type in all cases: biochemical
ARK5/NUAK1 = target: T1, ARK5/NUAK1 (Homo sapiens, UniProt O60285)
T1 construct: purchased Reaction Biology Corporation (assay service)
Excerpt: (§1) Kinase activity data was expressed as the percent remaining kinase activity in test samples compared to vehicle (dimethyl sulfoxide) reactions based on the radioactivity of reaction products (see Table S2). Experiment was replicated twice.

Aurora A = target: T2, Aurora A (Homo sapiens, UniProt O14965); conditions: 500 nM; relative to DMSO; read-out: Residual enzymatic activity
T2 construct: purchased Reaction Biology Corporation
Excerpt: as §1

BMX/ETK = target: T3, BMX/ETK (Homo sapiens, UniProt P51813)
T3 construct: purchased Reaction Biology Corporation (assay service)
T3 sequence (P51813 whole entry): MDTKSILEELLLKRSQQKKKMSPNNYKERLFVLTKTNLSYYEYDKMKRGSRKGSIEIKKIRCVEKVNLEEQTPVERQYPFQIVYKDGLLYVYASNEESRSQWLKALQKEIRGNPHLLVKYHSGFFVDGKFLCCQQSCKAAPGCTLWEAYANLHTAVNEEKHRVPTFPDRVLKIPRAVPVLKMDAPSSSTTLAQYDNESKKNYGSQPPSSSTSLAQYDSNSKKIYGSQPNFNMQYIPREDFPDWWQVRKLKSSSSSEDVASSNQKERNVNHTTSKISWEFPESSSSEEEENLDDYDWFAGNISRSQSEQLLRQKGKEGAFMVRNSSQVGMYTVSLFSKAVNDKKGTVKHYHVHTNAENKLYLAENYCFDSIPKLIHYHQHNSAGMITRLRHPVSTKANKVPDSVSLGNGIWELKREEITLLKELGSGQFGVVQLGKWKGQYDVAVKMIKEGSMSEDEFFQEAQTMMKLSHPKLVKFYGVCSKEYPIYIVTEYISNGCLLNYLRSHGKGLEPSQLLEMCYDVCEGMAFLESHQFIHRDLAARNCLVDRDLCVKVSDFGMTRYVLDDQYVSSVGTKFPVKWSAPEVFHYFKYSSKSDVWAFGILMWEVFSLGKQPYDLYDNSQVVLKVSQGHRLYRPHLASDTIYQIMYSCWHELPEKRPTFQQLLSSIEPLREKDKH
Excerpt: as §1

CAMK1a = target: T4, CAMK1a (Homo sapiens, UniProt Q14012); conditions: 500 nM; relative to DMSO; read-out: Residual enzymatic activity
T4 construct: purchased Reaction Biology Corporation
Excerpt: as §1

CAMK1d = target: T5, CAMK1d (Homo sapiens, UniProt Q8IU85); conditions: 500 nM; relative to DMSO; read-out: Residual enzymatic activity
T5 construct: purchased Reaction Biology Corporation
Excerpt: as §1

CAMK1g = target: T6, CAMK1g (Homo sapiens, UniProt Q96NX5); conditions: 500 nM; relative to DMSO; read-out: Residual enzymatic activity
T6 construct: purchased Reaction Biology Corporation
Excerpt: as §1

CDK9/cyclin K = target: T7, CDK9/cyclin K (Homo sapiens, UniProt P50750); conditions: 500 nM; relative to DMSO; read-out: Residual enzymatic activity
T7 construct: purchased Reaction Biology Corporation
Excerpt: as §1

EGFR = target: T8, EGFR (Homo sapiens, UniProt P00533); conditions: 500 nM, relative to DMSO
T8 construct: purchased Reaction Biology Corporation
Excerpt: as §1

EPHA2 = target: T9, EPHA2 (Homo sapiens, UniProt P29317); conditions: 500 nM, relative to DMSO
T9 construct: purchased Reaction Biology Corporation
Excerpt: as §1

FES/FPS = target: T10, FES/FPS (Homo sapiens, UniProt P07332); conditions: 500 nM; relative to DMSO; read-out: Residual enzymatic activity
T10 construct: purchased Reaction Biology Corporation
Excerpt: as §1

FGFR2 = target: T11, FGFR2 (Homo sapiens, UniProt P21802); conditions: 500 nM, relative to DMSO
T11 construct: purchased Reaction Biology Corporation
Excerpt: as §1

FYN = target: T12, FYN (Homo sapiens, UniProt P06241)
T12 construct: purchased Reaction Biology Corporation (assay service)
T12 sequence (P06241 whole entry): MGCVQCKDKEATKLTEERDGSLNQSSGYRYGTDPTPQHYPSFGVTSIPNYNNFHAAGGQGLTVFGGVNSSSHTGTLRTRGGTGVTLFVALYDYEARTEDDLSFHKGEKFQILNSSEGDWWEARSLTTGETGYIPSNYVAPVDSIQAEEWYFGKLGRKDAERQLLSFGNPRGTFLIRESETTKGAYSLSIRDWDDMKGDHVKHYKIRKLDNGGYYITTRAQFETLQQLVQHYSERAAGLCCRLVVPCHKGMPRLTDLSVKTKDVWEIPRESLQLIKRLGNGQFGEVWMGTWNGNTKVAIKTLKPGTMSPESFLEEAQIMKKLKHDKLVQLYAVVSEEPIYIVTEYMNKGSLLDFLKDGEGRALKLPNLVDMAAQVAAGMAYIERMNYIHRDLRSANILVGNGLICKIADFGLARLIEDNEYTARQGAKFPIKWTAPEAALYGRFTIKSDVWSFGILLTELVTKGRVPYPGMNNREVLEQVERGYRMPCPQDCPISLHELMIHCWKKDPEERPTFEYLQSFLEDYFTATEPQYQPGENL
Excerpt: as §1

IKKa/CHUK = target: T13, IKKa/CHUK (Homo sapiens, UniProt O15111); conditions: 500 nM; relative to DMSO; read-out: Residual enzymatic activity
T13 construct: purchased Reaction Biology Corporation
Excerpt: as §1

ITK = target: T14, ITK (Homo sapiens, UniProt Q08881); conditions: 500 nM; relative to DMSO; read-out: Residual enzymatic activity
T14 construct: purchased Reaction Biology Corporation
Excerpt: as §1

JAK2 = target: T15, JAK2 (Homo sapiens, UniProt O60674)
T15 construct: purchased Reaction Biology Corporation (assay service)
Excerpt: as §1

JNK1 = target: T16, JNK1 (Homo sapiens, UniProt P45983); conditions: 500 nM; relative to DMSO; read-out: Residual enzymatic activity
T16 construct: purchased Reaction Biology Corporation
Excerpt: as §1

JNK2 = target: T17, JNK2 (Homo sapiens, UniProt P45984); conditions: 500 nM; relative to DMSO; read-out: Residual enzymatic activity
T17 construct: purchased Reaction Biology Corporation
Excerpt: as §1

KDR/VEGFR2 = target: T18, KDR/VEGFR2 (Homo sapiens, UniProt P35968); conditions: 500 nM, relative to DMSO
T18 construct: purchased Reaction Biology Corporation
T18 sequence (P35968 20-1356): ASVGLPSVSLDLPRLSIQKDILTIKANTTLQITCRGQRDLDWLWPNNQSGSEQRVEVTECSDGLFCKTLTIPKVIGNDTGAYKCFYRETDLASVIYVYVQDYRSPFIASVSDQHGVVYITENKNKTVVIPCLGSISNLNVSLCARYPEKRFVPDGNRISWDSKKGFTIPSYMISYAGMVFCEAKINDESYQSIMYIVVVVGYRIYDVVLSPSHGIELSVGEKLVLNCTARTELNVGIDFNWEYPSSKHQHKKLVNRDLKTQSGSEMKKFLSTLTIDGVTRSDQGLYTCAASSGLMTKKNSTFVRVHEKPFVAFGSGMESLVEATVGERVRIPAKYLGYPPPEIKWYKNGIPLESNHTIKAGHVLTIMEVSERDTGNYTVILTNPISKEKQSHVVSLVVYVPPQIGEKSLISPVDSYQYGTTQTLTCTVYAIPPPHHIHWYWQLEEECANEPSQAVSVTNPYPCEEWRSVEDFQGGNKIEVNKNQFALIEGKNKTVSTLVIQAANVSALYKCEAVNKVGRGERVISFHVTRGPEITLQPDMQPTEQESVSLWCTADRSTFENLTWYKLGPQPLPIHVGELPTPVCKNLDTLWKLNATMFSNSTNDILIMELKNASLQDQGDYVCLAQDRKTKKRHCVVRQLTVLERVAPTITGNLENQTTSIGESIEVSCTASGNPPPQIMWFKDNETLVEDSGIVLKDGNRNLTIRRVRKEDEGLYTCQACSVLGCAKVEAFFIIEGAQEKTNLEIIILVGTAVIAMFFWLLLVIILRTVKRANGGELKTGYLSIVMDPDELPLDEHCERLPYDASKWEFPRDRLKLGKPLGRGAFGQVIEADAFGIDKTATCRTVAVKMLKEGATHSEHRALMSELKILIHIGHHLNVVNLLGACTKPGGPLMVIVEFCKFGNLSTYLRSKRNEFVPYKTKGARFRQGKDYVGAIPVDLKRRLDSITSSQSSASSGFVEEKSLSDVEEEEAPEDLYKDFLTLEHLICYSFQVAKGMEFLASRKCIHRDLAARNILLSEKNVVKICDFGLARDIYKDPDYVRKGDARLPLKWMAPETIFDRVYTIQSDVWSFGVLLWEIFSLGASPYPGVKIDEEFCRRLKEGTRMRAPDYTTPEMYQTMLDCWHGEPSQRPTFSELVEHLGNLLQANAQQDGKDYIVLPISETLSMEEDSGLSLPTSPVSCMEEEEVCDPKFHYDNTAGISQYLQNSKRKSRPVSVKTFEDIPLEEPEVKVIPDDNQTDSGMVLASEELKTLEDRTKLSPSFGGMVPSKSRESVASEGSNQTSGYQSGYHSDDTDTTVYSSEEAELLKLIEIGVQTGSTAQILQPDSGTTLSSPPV
Excerpt: as §1

LCK = target: T19, LCK (Homo sapiens, UniProt P06239)
T19 construct: purchased Reaction Biology Corporation (assay service)
T19 sequence (P06239 whole entry): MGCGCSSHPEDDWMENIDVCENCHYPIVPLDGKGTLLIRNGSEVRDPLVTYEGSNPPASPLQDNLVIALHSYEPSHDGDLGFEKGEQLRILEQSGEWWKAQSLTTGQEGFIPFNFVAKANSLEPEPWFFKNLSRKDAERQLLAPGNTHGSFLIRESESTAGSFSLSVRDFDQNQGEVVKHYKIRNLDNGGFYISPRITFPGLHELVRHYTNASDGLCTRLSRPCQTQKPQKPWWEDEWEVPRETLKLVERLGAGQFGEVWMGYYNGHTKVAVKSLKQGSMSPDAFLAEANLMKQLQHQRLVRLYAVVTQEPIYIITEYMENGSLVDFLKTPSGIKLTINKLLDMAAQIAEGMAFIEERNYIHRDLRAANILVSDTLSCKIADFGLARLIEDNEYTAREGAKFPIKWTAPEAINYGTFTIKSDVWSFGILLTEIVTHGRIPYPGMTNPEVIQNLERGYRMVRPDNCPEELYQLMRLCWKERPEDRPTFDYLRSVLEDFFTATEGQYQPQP
Excerpt: as §1

MARK1 = target: T20, MARK1 (Homo sapiens, UniProt Q9P0L2); conditions: 500 nM; relative to DMSO; read-out: Residual enzymatic activity
T20 construct: purchased Reaction Biology Corporation
Excerpt: as §1

MARK2/PAR-1Ba = target: T21, MARK2/PAR-1Ba (Homo sapiens, UniProt Q7KZI7); conditions: 500 nM; relative to DMSO; read-out: Residual enzymatic activity
T21 construct: purchased Reaction Biology Corporation
Excerpt: as §1

MARK3 = target: T22, MARK3 (Homo sapiens, UniProt P27448); conditions: 500 nM; relative to DMSO; read-out: Residual enzymatic activity
T22 construct: purchased Reaction Biology Corporation
Excerpt: as §1

MLK3/MAP3K11 = target: T23, MLK3/MAP3K11 (Homo sapiens, UniProt Q16584)
T23 construct: purchased Reaction Biology Corporation (Malvern, PA, USA)
T23 sequence (Q16584 whole entry): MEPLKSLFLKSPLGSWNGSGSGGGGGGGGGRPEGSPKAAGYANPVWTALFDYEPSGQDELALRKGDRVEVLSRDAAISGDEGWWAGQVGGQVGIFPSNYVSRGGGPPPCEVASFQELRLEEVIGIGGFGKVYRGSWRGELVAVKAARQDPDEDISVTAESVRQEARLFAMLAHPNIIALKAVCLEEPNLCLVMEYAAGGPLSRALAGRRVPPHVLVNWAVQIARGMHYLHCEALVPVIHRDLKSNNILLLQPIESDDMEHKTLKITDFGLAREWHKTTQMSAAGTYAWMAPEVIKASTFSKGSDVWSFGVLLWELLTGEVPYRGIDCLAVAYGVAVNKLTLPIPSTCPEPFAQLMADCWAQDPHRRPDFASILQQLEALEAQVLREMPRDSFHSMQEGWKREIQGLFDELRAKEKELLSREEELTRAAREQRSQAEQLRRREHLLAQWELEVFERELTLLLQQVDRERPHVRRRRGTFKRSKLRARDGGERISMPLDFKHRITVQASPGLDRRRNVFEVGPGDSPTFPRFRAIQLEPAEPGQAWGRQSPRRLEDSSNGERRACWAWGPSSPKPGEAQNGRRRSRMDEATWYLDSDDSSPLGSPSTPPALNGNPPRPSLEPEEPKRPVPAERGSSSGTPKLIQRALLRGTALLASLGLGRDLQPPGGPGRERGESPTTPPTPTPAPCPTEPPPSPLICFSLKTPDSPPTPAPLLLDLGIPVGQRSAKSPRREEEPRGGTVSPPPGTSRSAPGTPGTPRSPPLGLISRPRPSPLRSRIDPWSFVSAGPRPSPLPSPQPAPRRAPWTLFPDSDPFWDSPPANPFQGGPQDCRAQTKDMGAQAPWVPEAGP
Excerpt: as §1

NEK11 = target: T24, NEK11 (Homo sapiens, UniProt Q8NG66)
T24 construct: purchased Reaction Biology Corporation (Malvern, PA, USA)
Excerpt: as §1

NEK2 = target: T25, NEK2 (Homo sapiens, UniProt P51955); conditions: 500 nM; relative to DMSO; read-out: Residual enzymatic activity
T25 construct: purchased Reaction Biology Corporation
Excerpt: as §1

PAK1 = target: T26, PAK1 (Homo sapiens, UniProt Q13153); conditions: 500 nM; relative to DMSO; read-out: Residual enzymatic activity
T26 construct: purchased Reaction Biology Corporation
Excerpt: as §1

PAK2 = target: T27, PAK2 (Homo sapiens, UniProt Q13177); conditions: 500 nM; relative to DMSO; read-out: Residual enzymatic activity
T27 construct: purchased Reaction Biology Corporation
Excerpt: as §1

PAK3 = target: T28, PAK3 (Homo sapiens, UniProt O75914); conditions: 500 nM; relative to DMSO; read-out: Residual enzymatic activity
T28 construct: purchased Reaction Biology Corporation
Excerpt: as §1

PKG2/PRKG2 = target: T29, PKG2/PRKG2 (Homo sapiens, UniProt Q13237); conditions: 500 nM; relative to DMSO; read-out: Residual enzymatic activity
T29 construct: purchased Reaction Biology Corporation
Excerpt: as §1

PYK2 = target: T30, PYK2 (Homo sapiens, UniProt Q14289); conditions: 500 nM; relative to DMSO; read-out: Residual enzymatic activity
T30 construct: purchased Reaction Biology Corporation
Excerpt: as §1

RET = target: T31, RET (Homo sapiens, UniProt P07949)
T31 construct: purchased Reaction Biology Corporation (Malvern, PA, USA)
Excerpt: as §1

ROS/ROS1 = target: T32, ROS/ROS1 (Homo sapiens, UniProt P08922)
T32 construct: purchased Reaction Biology Corporation (Malvern, PA, USA)
Excerpt: as §1

SIK2 = target: T33, SIK2 (Homo sapiens, UniProt Q9H0K1)
T33 construct: purchased Reaction Biology Corporation (Malvern, PA, USA)
T33 sequence (Q9H0K1 whole entry): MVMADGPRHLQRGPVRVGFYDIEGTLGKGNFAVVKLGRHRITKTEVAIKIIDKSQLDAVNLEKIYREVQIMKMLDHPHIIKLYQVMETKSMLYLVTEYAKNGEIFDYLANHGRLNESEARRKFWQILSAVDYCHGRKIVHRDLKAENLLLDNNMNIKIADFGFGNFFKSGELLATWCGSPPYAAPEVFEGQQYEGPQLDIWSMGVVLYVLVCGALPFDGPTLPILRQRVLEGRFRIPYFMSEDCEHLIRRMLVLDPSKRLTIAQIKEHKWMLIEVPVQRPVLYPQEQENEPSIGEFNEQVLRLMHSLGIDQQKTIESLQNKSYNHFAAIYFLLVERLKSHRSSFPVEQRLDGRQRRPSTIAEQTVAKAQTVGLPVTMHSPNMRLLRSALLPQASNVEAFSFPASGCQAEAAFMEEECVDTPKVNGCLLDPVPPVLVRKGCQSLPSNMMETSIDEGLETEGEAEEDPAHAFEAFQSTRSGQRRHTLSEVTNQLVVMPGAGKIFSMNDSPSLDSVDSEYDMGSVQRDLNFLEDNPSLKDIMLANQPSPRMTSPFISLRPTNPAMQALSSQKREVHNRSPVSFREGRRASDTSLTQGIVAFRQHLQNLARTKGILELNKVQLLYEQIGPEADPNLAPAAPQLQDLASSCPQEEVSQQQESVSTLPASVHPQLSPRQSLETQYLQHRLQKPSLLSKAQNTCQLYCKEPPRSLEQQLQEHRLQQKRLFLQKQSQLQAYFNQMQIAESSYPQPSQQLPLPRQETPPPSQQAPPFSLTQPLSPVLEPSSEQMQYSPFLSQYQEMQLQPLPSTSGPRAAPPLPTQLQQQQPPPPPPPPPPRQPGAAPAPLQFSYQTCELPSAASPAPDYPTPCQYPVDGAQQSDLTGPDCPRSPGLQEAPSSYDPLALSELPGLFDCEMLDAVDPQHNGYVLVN
Excerpt: as §1

TLK2 = target: T34, TLK2 (Homo sapiens, UniProt Q86UE8); conditions: 500 nM; relative to DMSO; read-out: Residual enzymatic activity
T34 construct: purchased Reaction Biology Corporation
Excerpt: as §1

TRKC = target: T35, TRKC (Homo sapiens, UniProt Q16288); conditions: 500 nM; relative to DMSO; read-out: Residual enzymatic activity
T35 construct: purchased Reaction Biology Corporation
Excerpt: as §1

TSSK3/STK22C = target: T36, TSSK3/STK22C (Homo sapiens, UniProt Q96PN8); conditions: 500 nM; relative to DMSO; read-out: Residual enzymatic activity
T36 construct: purchased Reaction Biology Corporation
Excerpt: as §1

ZIPK/DAPK3 = target: T37, ZIPK/DAPK3 (Homo sapiens, UniProt O43293); conditions: 500 nM; relative to DMSO; read-out: Residual enzymatic activity
T37 construct: purchased Reaction Biology Corporation
Excerpt: as §1

[1] = 500 nM, relative to DMSO, read-out: Residual enzymatic activity
[2] = 10-dose mode, threefold serial dilution from 10 μM
[3] = read-out: Residual enzymatic activity

`COc1cc(Nc2ncnc(Nc3cc4c(cn3)NC(=O)C(C)(C)O4)n2)cc(OC)c1OC` [MT-SYK-03] showed a remaining activity at 0.5 µM (ARK5/NUAK1; [1]) of 49.7%, an IC50 (ARK5/NUAK1; [2]) of 376 nM and a remaining activity at 0.5 µM (Aurora A) of 74.4%. The remaining activity at 0.5 µM (BMX/ETK; [1]) was 18%, the IC50 (BMX/ETK; [2]) was 199 nM and the remaining activity at 0.5 µM (CAMK1a) was 100%. The remaining activity at 0.5 µM (CAMK1d) was 108%, the remaining activity at 0.5 µM (CAMK1g) was 99.2% and the remaining activity at 0.5 µM (CDK9/cyclin K) was 95.7%. For the same compound, the Residual enzymatic activity (EGFR) was 59.6%, the remaining activity at 0.5 µM (EGFR; [3]) was over 54% and the Residual enzymatic activity (EPHA2) was 56.3%. For the same compound, the remaining activity at 0.5 µM (EPHA2; [3]) was over 54%, the remaining activity at 0.5 µM (FES/FPS) was 92.2% and the Residual enzymatic activity (FGFR2) was 65.1%. For the same compound, the remaining activity at 0.5 µM (FGFR2; [3]) was over 54%, the remaining activity at 0.5 µM (FYN; [1]) was 25.2% and the IC50 (FYN; [2]) was 20 nM. The remaining activity at 0.5 µM (IKKa/CHUK) was 100%, the remaining activity at 0.5 µM (ITK) was 102% and the remaining activity at 0.5 µM (JAK2; [1]) was 27%. For the same compound, the IC50 (JAK2; [2]) was 67.2 nM, the remaining activity at 0.5 µM (JNK1) was 94.3% and the remaining activity at 0.5 µM (JNK2) was 92.6%. For the same compound, the Residual enzymatic activity (KDR/VEGFR2) was “did not inhibit”, the remaining activity at 0.5 µM (KDR/VEGFR2; [3]) was 88.6% and the remaining activity at 0.5 µM (LCK; [1]) was 12%. For the same compound, the IC50 (LCK; [2]) was 20 nM and 20.1 nM, the remaining activity at 0.5 µM (MARK1) was 95.7% and the remaining activity at 0.5 µM (MARK2/PAR-1Ba) was 97.9%. The remaining activity at 0.5 µM (MARK3) was 97.1%, the remaining activity at 0.5 µM (MLK3/MAP3K11; [1]) was 31.4% and the IC50 (MLK3/MAP3K11; [2]) was 25.6 nM. For the same compound, the remaining activity at 0.5 µM (NEK11; [1]) was 35.9%, the IC50 (NEK11; [2]) was 26.1 nM and the remaining activity at 0.5 µM (NEK2) was 86%. It also gave a remaining activity at 0.5 µM (PAK1) of 100%, a remaining activity at 0.5 µM (PAK2) of 94.1% and a remaining activity at 0.5 µM (PAK3) of 87%. It also gave a remaining activity at 0.5 µM (PKG2/PRKG2) of 94.2%, a remaining activity at 0.5 µM (PYK2) of 63.4% and a remaining activity at 0.5 µM (RET; [1]) of 23%. The IC50 (RET; [2]) was 13.5 nM, the remaining activity at 0.5 µM (ROS/ROS1; [1]) was 25.9% and the IC50 (ROS/ROS1; [2]) was 34.7 nM. The remaining activity at 0.5 µM (SIK2; [1]) was 16.2%, the IC50 (SIK2; [2]) was 23 nM and 23.4 nM and the remaining activity at 0.5 µM (TLK2) was 95.6%. It also gave a remaining activity at 0.5 µM (TRKC) of 84.5%, a remaining activity at 0.5 µM (TSSK3/STK22C) of 99.9% and a remaining activity at 0.5 µM (ZIPK/DAPK3) of 98.4%.
